Data published in article PMC12249917, “Novel Au(I)- and Ag(I)-NHC Complexes with N-Boc-Protected Proline as Potential Candidates for Neurodegenerative Disorders” (International Journal of Molecular Sciences, 2025).
Read-outs that look alike come from different tables or passages of the source.

Legend:
[1] = tested on: NO production in LPS-stimulated RAW 264.7 murine macrophages (iNOS); experiment: Griess assay, NO production (iNOS) in LPS-stimulated RAW 264.7 macrophages; type: cell-based; conditions: for inhibition of NO production: 5 µM
Description: As a positive control, the nonsteroidal anti-inflammatory drug (NSAID) Indomethacin (Ind) was used.
Then, the cell culture medium was combined with an equal volume of Griess reagent at 40 mg/mL (ratio 1:1), and after a 30 min incubation with agitation, the optical density was measured at 540 nm. The levels of NO vs. LPS were calculated from the absorbance measurements using the following formula:(1) INO vs LPS (%)=ABSLPS−ABSSample/ABSLPS∗100 where ABSLPS represents the average absorbance of cells treated with LPS alone, and ABSsample represents the average absorbance of cells treated with both LPS and the tested complexes or Indomethacin.
NO production was induced by LPS (1 µg/mL). […] Salmon histograms: MTT assays performed in same experimental conditions in order to verify effect on RAW 264.7 cells’ viability of Indomethacin and tested complexes. Data were plotted as % of cell viability with respect to viability with LPS-only treatment (1 µg/mL).

[2] = molecular target: T1, hMAO-A (Homo sapiens, UniProt P21397); experiment: hMAO-A inhibitory activity; type: biochemical
T1 sequence (P21397 1-527): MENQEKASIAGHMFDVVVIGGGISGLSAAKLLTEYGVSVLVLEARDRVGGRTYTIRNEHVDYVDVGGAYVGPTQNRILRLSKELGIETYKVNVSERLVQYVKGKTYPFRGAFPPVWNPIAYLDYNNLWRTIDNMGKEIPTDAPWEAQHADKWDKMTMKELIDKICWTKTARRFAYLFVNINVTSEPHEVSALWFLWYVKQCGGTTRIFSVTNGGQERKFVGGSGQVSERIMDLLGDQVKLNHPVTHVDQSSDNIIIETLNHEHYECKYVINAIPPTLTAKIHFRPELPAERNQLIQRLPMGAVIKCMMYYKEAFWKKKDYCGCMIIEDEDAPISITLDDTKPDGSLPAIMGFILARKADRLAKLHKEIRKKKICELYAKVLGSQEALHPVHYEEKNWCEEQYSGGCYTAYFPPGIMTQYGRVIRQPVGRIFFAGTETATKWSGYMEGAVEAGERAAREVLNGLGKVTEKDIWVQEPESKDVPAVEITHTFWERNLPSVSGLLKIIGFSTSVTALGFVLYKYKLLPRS
Description: (§1) Altered levels of MAO-A/B are associated with the degeneration of neurotransmitter biogenic amines such as serotonin, noradrenaline, and dopamine and are implicated in several diseases, such as depression, cancer, PD, and AD [27]. With this in mind, we explored the potential of these complexes in inhibiting human MAO (hMAO) isoforms.
(§2) The inhibitory activity of the gold and silver complexes against hMAO-A and hMAO-B was evaluated using a previously published protocol. […] Data analysis was performed using GraphPad PRISM 9 (GraphPad Software®, San Diego, CA, USA). IC50 values were determined from the dose–response curves and were presented as the mean ± SD of three independent experiments, each conducted in triplicate.

[3] = molecular target: equine butyrylcholinesterase (eqBChE) (Equus caballus, UniProt P81908)
Sequence of equine butyrylcholinesterase (eqBChE) (P81908 whole entry): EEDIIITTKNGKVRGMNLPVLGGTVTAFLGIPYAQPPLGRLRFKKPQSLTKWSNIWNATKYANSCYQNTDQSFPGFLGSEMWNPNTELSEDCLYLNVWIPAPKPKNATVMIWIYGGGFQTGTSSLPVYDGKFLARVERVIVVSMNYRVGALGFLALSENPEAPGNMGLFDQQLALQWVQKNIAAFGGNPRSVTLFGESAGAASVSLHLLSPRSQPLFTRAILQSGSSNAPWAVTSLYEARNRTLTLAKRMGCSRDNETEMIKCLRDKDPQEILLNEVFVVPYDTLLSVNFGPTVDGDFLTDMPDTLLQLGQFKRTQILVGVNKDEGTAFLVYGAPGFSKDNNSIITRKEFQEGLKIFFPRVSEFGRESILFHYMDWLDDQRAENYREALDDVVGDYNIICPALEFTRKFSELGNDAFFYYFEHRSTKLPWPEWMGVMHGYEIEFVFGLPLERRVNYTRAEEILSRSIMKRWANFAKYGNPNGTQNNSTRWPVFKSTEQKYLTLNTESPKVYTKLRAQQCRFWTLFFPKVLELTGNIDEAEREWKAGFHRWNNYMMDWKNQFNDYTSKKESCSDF
Description: (§3) The enzyme-inhibiting properties of the Au and Ag complexes against electric eel acetylcholinesterase (eeAChE) and equine butyrylcholinesterase (eqBChE) were assessed via a modified Ellman assay. […] A buffer-only control was included. The inhibition potency (IC50) was calculated from triplicate dose–response data, presented as the mean ± SD.

[4] = molecular target: electric eel acetylcholinesterase (eeAChE) (Electrophorus electricus, UniProt O42275)
Sequence of electric eel acetylcholinesterase (eeAChE) (O42275 24-633): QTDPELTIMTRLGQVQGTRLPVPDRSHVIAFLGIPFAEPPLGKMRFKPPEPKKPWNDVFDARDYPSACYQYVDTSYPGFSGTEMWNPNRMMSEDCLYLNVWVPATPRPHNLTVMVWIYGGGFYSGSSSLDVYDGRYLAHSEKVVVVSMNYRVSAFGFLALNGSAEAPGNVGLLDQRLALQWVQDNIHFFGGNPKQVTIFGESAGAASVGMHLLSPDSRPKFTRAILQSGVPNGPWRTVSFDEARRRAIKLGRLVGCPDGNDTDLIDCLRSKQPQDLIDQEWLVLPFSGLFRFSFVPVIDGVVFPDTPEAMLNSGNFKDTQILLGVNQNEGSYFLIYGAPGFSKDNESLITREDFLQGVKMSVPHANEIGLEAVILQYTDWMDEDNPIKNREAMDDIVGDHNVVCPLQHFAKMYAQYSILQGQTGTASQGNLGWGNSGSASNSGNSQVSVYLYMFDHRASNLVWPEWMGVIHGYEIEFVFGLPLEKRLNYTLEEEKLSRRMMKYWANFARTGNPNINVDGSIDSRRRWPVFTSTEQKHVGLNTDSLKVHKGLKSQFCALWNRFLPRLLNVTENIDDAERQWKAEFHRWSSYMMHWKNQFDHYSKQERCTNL
Description: as §3

[5] = molecular target: T2, hMAO-B (Homo sapiens, UniProt P27338); type: biochemical; conditions: for IC50: mean ± S.D., three experiments in triplicate
T2 sequence (P27338 1-520): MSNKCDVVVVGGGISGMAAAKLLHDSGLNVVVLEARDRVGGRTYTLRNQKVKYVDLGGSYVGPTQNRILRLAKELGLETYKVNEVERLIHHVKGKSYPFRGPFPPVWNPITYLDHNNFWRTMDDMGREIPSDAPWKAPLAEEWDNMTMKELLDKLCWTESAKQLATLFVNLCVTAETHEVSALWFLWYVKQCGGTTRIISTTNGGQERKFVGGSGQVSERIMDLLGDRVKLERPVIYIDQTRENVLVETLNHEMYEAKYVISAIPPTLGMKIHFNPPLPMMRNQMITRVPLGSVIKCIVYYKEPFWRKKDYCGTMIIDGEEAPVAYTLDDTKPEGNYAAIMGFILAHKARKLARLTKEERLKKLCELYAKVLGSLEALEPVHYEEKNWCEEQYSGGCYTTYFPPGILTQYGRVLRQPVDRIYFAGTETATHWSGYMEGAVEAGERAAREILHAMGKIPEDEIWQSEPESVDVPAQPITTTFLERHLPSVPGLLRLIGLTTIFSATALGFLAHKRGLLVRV
Description: as §1, §2

[6] = tested on: RAW 264.7 cells; experiment: MTT cell viability, RAW 264.7; type: cell-based, murine; conditions: RAW 264.7, MTT, 24 h
Description: 3-(4,5-dimethylthiazol-2-yl)-2,5-diphenyl-2H-tetrazolium bromide (MTT) was added to the cells in order to measure the cell viability at 24 h, as previously reported. IC50 values were determined from the dose–response curves for both NO inhibition (%) and the cell viability (%) using GraphPad Prism 9 software (GraphPad Software, La Jolla, CA, USA) and were presented as the mean ± SD of three independent experiments, each conducted in triplicate.
Figure 2 Brown histograms: Anti-inflammatory activity in terms of NO production inhibition (%), measured in vitro using RAW 264.7 murine macrophages. NO production was induced by LPS (1 µg/mL). Data were plotted as % NO inhibition with respect to inhibition with LPS-only treatment. Salmon histograms: MTT assays performed in same experimental conditions in order to verify effect on RAW 264.7 cells’ viability of Indomethacin and tested complexes. Data were plotted as % of cell viability with respect to viability with LPS-only treatment (1 µg/mL). Indomethacin (Ind) was used at concentration of 25 µM, while all other complexes were used at 5 µM, for 24 h. Bars ± SDs are shown (n = 3). ** p < 0.01 and **** p < 0.0001 for complex 3bP and Ind vs. LPS only; not significant (n.s.) where not indicated.

[7] = tested on: intracellular ROS production in 3T3-L1 murine fibroblasts; experiment: Intracellular ROS (H2DCF-DA) in menadione-treated 3T3-L1 fibroblasts; type: cell-based; conditions: menadione 25 µM, 15 min; for ROS production reduced to, compared to Men treatment alone: 24 h
Description: N-acetyl-cysteine (NAC), a powerful antioxidant, was used as a positive control.
The antioxidant capacity of the Au and Ag complexes was evaluated in 3T3-L1 murine fibroblasts by assessing the intracellular reactive oxygen species (ROS) levels using a DCFH2-DA assay, following a previously established method [36]. The cells were seeded in 96-well plates and incubated with the tested complexes at concentrations of between 0.1 and 20 µM for a 24 h period. […] N-acetylcysteine (NAC), a recognized antioxidant, served as a positive control at 20 mM. […] The % of ROS production inhibition (IROS) vs. that of the menadione-treated cells was calculated using the following formula:(2) IROS vs Men (%)=FMen−FSample/FMen∗100 where FMen represents the average fluorescence of the cells treated with menadione alone, and Fsample represents the average fluorescence of the cells treated with both menadione and the tested complexes or NAC.
Data were plotted as % ROS inhibition with respect to inhibition with Men-only treatment.

[8] = LPS 1 µg/mL, RAW 264.7, 24 h, read-out: IC50 (µM) NO Inhibition
[9] = mean ± S.D., three experiments in triplicate, read-out: IC50 (µM) hMAO-A
[10] = read-out: IC50 (µM) eqBChE, mean ± S.D., three experiments in triplicate
[11] = read-out: IC50 (µM) eeAChE, mean ± S.D., three experiments in triplicate
[12] = Table S2, experimentally derived IC50, read-out: IC50 (μM), hMAOA (Table S2)
[13] = read-out: IC50 (μM), hBChE (Table S1), Table S1, experimentally derived IC50, column headed hBChE
[14] = read-out: IC50 (μM), hAChE (Table S1), Table S1, experimentally derived IC50, column headed hAChE

Structure (SMILES) | IC50 [1, 8] | IC50 [2, 9] | IC50 [3, 10] | IC50 [4, 11] | IC50 [5] | IC50 [6] | SI, eqBChE selectivity index = IC50(eeAChE)/IC50(eqBChE) [3] | SI, hMAO-B selectivity index = IC50(hMAO-A)/IC50(hMAO-B) [5] | IC50 [2, 12] | IC50 [3, 13] | IC50 [4, 14] | inhibition of NO production ([1]; 24 h, vs LPS-only treatment) | IC50 ([1]; Table S3, experimentally derived IC50, read-out: IC50 (μM), iNOS (Table S3)) | ROS production reduced to, compared to Men treatment alone ([7]; 1 µM) | ROS production reduced to, compared to Men treatment alone ([7]; 10 µM) | inhibition at 25 µM ([1]; Mus musculus, RAW264.7, 25 µM, 24 h, vs LPS-only treatment) | IC50 ([1]; Mus musculus, RAW264.7, LPS 1 µg/mL, RAW 264.7, 24 h, read-out: IC50 (µM) NO Inhibition) | IC50 ([6]; Mus musculus, RAW264.7) | ROS formation reduced to [7]
C[n+]1ccn(CC(O)c2ccccc2)[c]1[Ag-][O]C(=O)[C@@H]1CCCN1C(=O)OC(C)(C)C (some centres unmarked) [1aP] | > 50 µM | > 25 µM | > 25 µM | > 25 µM | > 25 µM | > 50 µM |  |  |  |  |  |  |  |  |  |  |  |  | 
C[n+]1ccn(CC(O)c2ccccc2)[c]1[Au-][O]C(=O)[C@@H]1CCCN1C(=O)OC(C)(C)C (some centres unmarked) [1bP] | > 50 µM | 1.32 ± 0.02 µM | 6.19 ± 0.91 µM | 18.4 ± 1.43 µM | 3.78 ± 0.16 µM | > 50 µM | 2.97 | 0.35 |  |  |  |  |  |  |  |  |  |  | 
C[n+]1c(Cl)c(Cl)n(CC(O)c2ccccc2)[c]1[Ag-][O]C(=O)[C@@H]1CCCN1C(=O)OC(C)(C)C (some centres unmarked) [2aP] | > 50 µM | 15 ± 1.02 µM | 18.2 ± 2.4 µM | > 25 µM | 9.82 ± 0.84 µM | > 50 µM | >1.37 | 1.53 | 15 ± 0.9 µM | 18.2 ± 0.02 µM |  |  |  |  |  |  |  |  | 
C[n+]1c(Cl)c(Cl)n(CC(O)c2ccccc2)[c]1[Au-][O]C(=O)[C@@H]1CCCN1C(=O)OC(C)(C)C (some centres unmarked) [2bP] | 32.3 ± 1.82 µM | 0.72 ± 0.02 µM | 3.14 ± 0.33 µM | 4.68 ± 0.47 µM | 1.94 ± 0.09 µM | > 50 µM | 1.49 | 0.37 |  | 3.1 ± 0.02 µM | 4.7 ± 0.02 µM |  |  |  |  |  |  |  | 
C[n+]1c(-c2ccccc2)c(-c2ccccc2)n(CC(O)c2ccccc2)[c]1[Ag-][O]C(=O)[C@@H]1CCCN1C(=O)OC(C)(C)C (some centres unmarked) [3aP] | 30.9 ± 1.74 µM | 25 ± 2.95 µM | 17.4 ± 0.98 µM | > 25 µM | > 25 µM | > 50 µM | >1.44 |  |  |  |  | approximately 8% |  |  |  |  |  |  | 
C[n+]1c(-c2ccccc2)c(-c2ccccc2)n(CC(O)c2ccccc2)[c]1[Au-][O]C(=O)[C@@H]1CCCN1C(=O)OC(C)(C)C (some centres unmarked) [3bP] | 4.88 ± 0.58 µM | 1.84 ± 0.18 µM | > 25 µM | 5.89 ± 0.56 µM | 4.75 ± 0.75 µM | 20.3 ± 1.26 µM |  | 0.39 |  |  |  | about 52% | 4.9 ± 0.5 µM | approximately 70% |  |  |  |  | 
C[n+]1[c]([Ag-][O]C(=O)[C@@H]2CCCN2C(=O)OC(C)(C)C)n(CC(O)c2ccccc2)c2ccccc21 (some centres unmarked) [4aP] | > 50 µM | 3.32 ± 0.15 µM | 5.19 ± 0.95 µM | 14 ± 0.72 µM | 10.4 ± 1.95 µM | > 50 µM | 2.68 | 0.32 | 3.3 ± 0.01 µM | 5.2 ± 0.05 µM | 13.9 ± 0.01 µM |  |  |  |  |  |  |  | 
C[n+]1[c]([Au-][O]C(=O)[C@@H]2CCCN2C(=O)OC(C)(C)C)n(CC(O)c2ccccc2)c2ccccc21 (some centres unmarked) [4bP] | 13.1 ± 0.92 µM | 0.0713 µM | 0.45 ± 0.06 µM | 3.72 ± 0.44 µM | 2.1 ± 0.2 µM | 12.1 ± 1.03 µM | 8.27 | 0.03 |  |  | 3.7 ± 0.02 µM |  |  |  | approximately 60% |  |  |  | 
COc1ccc2c(c1)c(CC(=O)O)c(C)n2C(=O)c1ccc(Cl)cc1 [Indomethacin, reference compound] |  |  |  |  |  |  |  |  |  |  |  |  |  |  |  | ~20% | > 50 µM | > 50 µM | 
CC(=O)N[C@@H](CS)C(=O)O [NAC, N-acetyl-cysteine, reference compound] |  |  |  |  |  |  |  |  |  |  |  |  |  |  |  |  |  |  | approximately 70%
